{"source": "paper PMC6736568", "about": "“Discovery of Novel Anti-cryptosporidial Activities From Natural Products by in vitro High-Throughput Phenotypic Screening” (Frontiers in Microbiology, 2019)", "key": {"[1]": {"system": "Cryptosporidium parvum", "assay": "qRT-PCR assay of the growth of C. parvum in vitro in HCT-8 host cells (primary and secondary screening, EC50)", "type": "cell-based", "conditions": "Cryptosporidium parvum, HCT-8; primary screening at 10 uM; read-out: Inhibition (%)"}, "[2]": {"system": "HCT-8 host cells (Hs18S)"}, "[3]": {"assay": "in vitro"}, "[4]": {"conditions": "primary screening at 10 uM, treated vs control"}}, "note": "Where a name gives a salt, the structure may show the parent alone. Read-outs that look alike come from different tables or passages of the source.", "data": [{"smiles": "CC[C@H](CC[C@@H](C)[C@H]1CC[C@H]2[C@@H]3CC=C4C[C@@H](OC(C)=O)CC[C@]4(C)[C@H]3CC[C@]12C)C(C)C", "note": "[SITOSTERYL ACETATE]", "values": [{"measurement": "inhibition at 10 µM", "setting": "[1]", "result": -3.86, "unit": "%"}, {"measurement": "Hs18S ΔCT", "setting": "[2]; human, 41 h, 10 μM", "result": -0.17}, {"measurement": "cytotoxicity at 41 h, 10 µM", "setting": "[3]; human", "result": -12.4, "unit": "%"}]}, {"smiles": "O=C(O)CCCCCCCC(=O)O", "note": "[AZELAIC ACID]", "values": [{"measurement": "inhibition at 10 µM", "setting": "[1]", "result": 6.72, "unit": "%"}, {"measurement": "Hs18S ΔCT", "setting": "[2]; human, 41 h, 10 μM", "result": 0.03}, {"measurement": "cytotoxicity at 41 h, 10 µM", "setting": "[3]; human", "result": 1.8, "unit": "%"}]}, {"smiles": "CO[C@H]1C[C@H](O[C@H]2[C@H](C)[C@@H](O[C@@H]3O[C@H](C)C[C@H](N(C)C)[C@H]3O)[C@@H](C)C[C@@]3(CO3)C(=O)[C@H](C)[C@@H](O)[C@@H](C)[C@@H](C)OC(=O)[C@@H]2C)O[C@@H](C)[C@@H]1O", "note": "[OLEANDOMYCIN PHOSPHATE]", "values": [{"measurement": "inhibition at 10 µM", "setting": "[1]", "result": 17.6, "unit": "%"}, {"measurement": "Hs18S ΔCT", "setting": "[2]; human, 41 h, 10 μM", "result": 3.02}, {"measurement": "cytotoxicity at 41 h, 10 µM", "setting": "[3]; human", "result": 87.6, "unit": "%"}]}, {"smiles": "O=C(O)/C=C/c1ccccc1", "note": "[CINNAMIC ACID]", "values": [{"measurement": "inhibition at 10 µM", "setting": "[1]", "result": 2.86, "unit": "%"}, {"measurement": "Hs18S ΔCT", "setting": "[2]; [4]", "result": -0.39}, {"measurement": "cytotoxicity at 10 µM", "setting": "[3]", "result": -31, "unit": "%"}]}, {"smiles": "C=C[C@@](C)(O)CCC=C(C)C", "note": "[LINALOOL (+)]", "values": [{"measurement": "inhibition at 10 µM", "setting": "[1]", "result": -23.3, "unit": "%"}, {"measurement": "Hs18S ΔCT", "setting": "[2]; [4]", "result": 0.09}, {"measurement": "cytotoxicity at 10 µM", "setting": "[3]", "result": 6.1, "unit": "%"}]}, {"smiles": "COc1cc(OC)c2c(OC)c(-c3ccc4c(c3)OCO4)c(=O)oc2c1", "note": "[DERRUSNIN]", "values": [{"measurement": "inhibition at 10 µM", "setting": "[1]", "result": 14.8, "unit": "%"}, {"measurement": "Hs18S ΔCT", "setting": "[2]; [4]", "result": -0.10}, {"measurement": "cytotoxicity at 10 µM", "setting": "[3]", "result": -7.3, "unit": "%"}]}, {"smiles": "C[C@H](CCC(=O)NCC(=O)O)[C@H]1CC[C@H]2[C@@H]3[C@H](O)C[C@@H]4C[C@H](O)CC[C@]4(C)[C@H]3C[C@H](O)[C@]12C", "note": "[GLYCOCHOLIC ACID]", "values": [{"measurement": "inhibition at 10 µM", "setting": "[1]", "result": -58.4, "unit": "%"}, {"measurement": "Hs18S ΔCT", "setting": "[2]; human, 41 h, 10 μM", "result": -0.31}, {"measurement": "cytotoxicity at 10 µM", "setting": "[3]", "result": -23.7, "unit": "%"}]}, {"smiles": "O=C(/C=C/c1ccc(O)cc1)c1ccc(O)cc1O", "note": "[ISOLIQUIRITIGENIN]", "values": [{"measurement": "inhibition at 10 µM", "setting": "[1]", "result": 52.9, "unit": "%"}, {"measurement": "Hs18S ΔCT", "setting": "[2]; human, 41 h, 10 μM", "result": -0.34}, {"measurement": "cytotoxicity at 41 h, 10 µM", "setting": "[3]; human", "result": -26.4, "unit": "%"}]}, {"smiles": "COC(=O)/C=C/C(C)=C\\C=C\\C(C)=C\\C=C\\C=C(C)\\C=C\\C=C(C)\\C=C\\C(=O)O", "note": "[BIXIN]", "values": [{"measurement": "inhibition at 10 µM", "setting": "[1]", "result": 49.3, "unit": "%"}, {"measurement": "Hs18S ΔCT", "setting": "[2]; human, 41 h, 10 μM", "result": 0.60}, {"measurement": "cytotoxicity at 41 h, 10 µM", "setting": "[3]; human", "result": 34.2, "unit": "%"}]}, {"smiles": "C=CC(C)(O)CCC=C(C)CCC=C(C)C", "note": "(mixture of isomers) [NEROLIDOL]", "values": [{"measurement": "inhibition at 10 µM", "setting": "[1]", "result": -35.5, "unit": "%"}, {"measurement": "Hs18S ΔCT", "setting": "[2]; human, 41 h, 10 μM", "result": -0.17}, {"measurement": "cytotoxicity at 41 h, 10 µM", "setting": "[3]; human", "result": -12.9, "unit": "%"}]}, {"smiles": "COc1ccc(-c2cc(=O)c3c(O)cc(O[C@@H]4O[C@H](CO[C@@H]5O[C@@H](C)[C@H](O)[C@@H](O)[C@H]5O)[C@@H](O)[C@H](O)[C@H]4O)cc3o2)cc1O", "note": "[DIOSMIN]", "values": [{"measurement": "inhibition at 10 µM", "setting": "[1]", "result": 13.8, "unit": "%"}, {"measurement": "Hs18S ΔCT", "setting": "[2]; human, 41 h, 10 μM", "result": -0.65}, {"measurement": "cytotoxicity at 41 h, 10 µM", "setting": "[3]; human", "result": -57.1, "unit": "%"}]}, {"smiles": "COc1ccc2c3c([nH]c2c1)C(C)=NCC3", "note": "[HARMALINE]", "values": [{"measurement": "inhibition at 10 µM", "setting": "[1]", "result": -31.9, "unit": "%"}, {"measurement": "Hs18S ΔCT", "setting": "[2]; [4]", "result": 0.01}, {"measurement": "cytotoxicity at 10 µM", "setting": "[3]", "result": 0.9, "unit": "%"}]}, {"smiles": "COc1ccc2c(c1)OCC(Cc1ccc(OC)c(OC)c1)C2=O", "note": "(stereo not drawn)", "values": [{"measurement": "inhibition at 10 µM", "setting": "[1]", "result": 20.2, "unit": "%"}, {"measurement": "Hs18S ΔCT", "setting": "[2]; [4]", "result": 0.04}, {"measurement": "cytotoxicity at 10 µM", "setting": "[3]", "result": 2.4, "unit": "%"}]}, {"smiles": "C[C@H](CCC(=O)O)[C@H]1CC[C@H]2[C@@H]3CC[C@@H]4CCCC[C@]4(C)[C@H]3CC[C@]12C", "note": "[URSOCHOLANIC ACID]", "values": [{"measurement": "inhibition at 10 µM", "setting": "[1]", "result": 59.3, "unit": "%"}, {"measurement": "Hs18S ΔCT", "setting": "[2]; [4]", "result": -0.10}, {"measurement": "cytotoxicity at 41 h, 10 µM", "setting": "[3]", "result": -6.9, "unit": "%"}]}, {"smiles": "COc1c2occc2c(OC)c2c(=O)cc(C)oc12", "note": "[KHELLIN]", "values": [{"measurement": "inhibition at 10 µM", "setting": "[1]", "result": -11.8, "unit": "%"}, {"measurement": "Hs18S ΔCT", "setting": "[2]; human, 41 h, 10 μM", "result": 0.22}, {"measurement": "cytotoxicity at 41 h, 10 µM", "setting": "[3]; human", "result": 14.1, "unit": "%"}]}, {"smiles": "NC[C@H]1O[C@H](O[C@H]2[C@H](O)[C@@H](O[C@H]3O[C@H](CO)[C@@H](O)[C@H](N)[C@H]3O)[C@H](N)C[C@@H]2N)[C@H](O)[C@@H](O)[C@@H]1O", "note": "[KANAMYCIN A SULFATE]", "values": [{"measurement": "inhibition at 10 µM", "setting": "[1]", "result": 29.3, "unit": "%"}, {"measurement": "Hs18S ΔCT", "setting": "[2]; human, 41 h, 10 μM", "result": -0.31}, {"measurement": "cytotoxicity at 41 h, 10 µM", "setting": "[3]; human", "result": -23.9, "unit": "%"}]}, {"smiles": "CC(C)=CC1C(C(=O)O)C1(C)C", "note": "(stereo not drawn) [CHRYSANTHEMIC ACID]", "values": [{"measurement": "inhibition at 10 µM", "setting": "[1]", "result": -13.4, "unit": "%"}, {"measurement": "Hs18S ΔCT", "setting": "[2]; [4]", "result": -0.32}, {"measurement": "cytotoxicity at 10 µM", "setting": "[3]", "result": -24.6, "unit": "%"}]}, {"smiles": "CC1=C(/C=C/C(C)=C/C=C/C(C)=C/C=C/C=C(C)/C=C/C=C(C)/C=C/C(=O)[C@]2(C)C[C@@H](O)CC2(C)C)C(C)(C)C[C@H](O)C1", "note": "[CAPSANTHIN]", "values": [{"measurement": "inhibition at 10 µM", "setting": "[1]", "result": -5.31, "unit": "%"}, {"measurement": "Hs18S ΔCT", "setting": "[2]; human, 41 h, 10 μM", "result": -0.08}, {"measurement": "cytotoxicity at 41 h, 10 µM", "setting": "[3]; human", "result": -5.5, "unit": "%"}]}, {"smiles": "COc1ccc2c(c1OC)C(=O)O[C@@H]2[C@H]1c2c(cc3c(c2OC)OCO3)CCN1C", "note": "[NOSCAPINE HYDROCHLORIDE]", "values": [{"measurement": "inhibition at 10 µM", "setting": "[1]", "result": -51.6, "unit": "%"}, {"measurement": "Hs18S ΔCT", "setting": "[2]; human, 41 h, 10 μM", "result": 0.30}, {"measurement": "cytotoxicity at 41 h, 10 µM", "setting": "[3]; human", "result": 18.9, "unit": "%"}]}, {"smiles": "COc1c2ccoc2c(OC)c2oc(=O)ccc12", "note": "[ISOPIMPINELLIN]", "values": [{"measurement": "inhibition at 10 µM", "setting": "[1]", "result": -23.2, "unit": "%"}, {"measurement": "Hs18S ΔCT", "setting": "[2]; human, 41 h, 10 μM", "result": -0.24}, {"measurement": "cytotoxicity at 41 h, 10 µM", "setting": "[3]; human", "result": -18.1, "unit": "%"}]}, {"smiles": "COc1c(O)cc2c(c1O)[C@@H]1O[C@H](CO)[C@@H](O)[C@H](O)[C@H]1OC2=O", "note": "[BERGENIN]", "values": [{"measurement": "inhibition at 10 µM", "setting": "[1]", "result": 36, "unit": "%"}, {"measurement": "Hs18S ΔCT", "setting": "[2]; human, 41 h, 10 μM", "result": 0.38}, {"measurement": "cytotoxicity at 41 h, 10 µM", "setting": "[3]; human", "result": 23.1, "unit": "%"}]}, {"smiles": "COc1cc([C@@H]2c3cc4c(cc3[C@@H](O[C@@H]3O[C@@H]5CO[C@@H](C)O[C@H]5[C@H](O)[C@H]3O)[C@H]3COC(=O)[C@H]23)OCO4)cc(OC)c1O", "note": "[ETOPOSIDE]", "values": [{"measurement": "inhibition at 10 µM", "setting": "[1]", "result": 48.5, "unit": "%"}, {"measurement": "Hs18S ΔCT", "setting": "[2]; human, 41 h, 10 μM", "result": 0.40}, {"measurement": "cytotoxicity at 41 h, 10 µM", "setting": "[3]; human", "result": 24.1, "unit": "%"}]}, {"smiles": "OC[C@@H](O)[C@@H](O)[C@H](O)[C@@H](O)CO", "note": "[SORBITOL]", "values": [{"measurement": "inhibition at 10 µM", "setting": "[1]", "result": -33.8, "unit": "%"}, {"measurement": "Hs18S ΔCT", "setting": "[2]; human, 41 h, 10 μM", "result": -0.18}, {"measurement": "cytotoxicity at 41 h, 10 µM", "setting": "[3]; human", "result": -13.2, "unit": "%"}]}, {"smiles": "C=C(C)c1cc2cc(C(C)=O)c(O)cc2o1", "note": "[EUPARIN]", "values": [{"measurement": "inhibition at 10 µM", "setting": "[1]", "result": 19, "unit": "%"}, {"measurement": "Hs18S ΔCT", "setting": "[2]; [4]", "result": 0.23}, {"measurement": "cytotoxicity at 10 µM", "setting": "[3]", "result": 14.6, "unit": "%"}]}]}
